# Results taken from PubChem BioAssay AID280 (DTP/NCI, 2004).
# Several values for one entry are separate records, joined by “and”; a condition that tells them apart may be missing. Equal values may be shown once. Inconclusive results and toxic doses are left out.
# System: nude mice, LOX melanoma ip, survival T/C
# Assay: NCI In Vivo Anticancer Drug Screen. Data for tumor model Human Amelanotic Melanoma (LOX) (intraperitoneal) in NU/NU BALB/C (nude) mice
# Conditions: endpoint: median survival time, higher = longer survival
# Description: The antitumor activity of compounds was measured in mice bearing transplantable tumors. Survival or tumor size were measured and the results are expressed as the measurement made in the treated group (T) divided by the measurement made in the vehicle treated control group (C). The tumor model used in this assay is Human Amelanotic Melanoma (LOX) (intraperitoneal) in NU/NU BALB/C (nude) mice
# [1] = dose: 75.0 mg/kg/injection, schedule: Q04DX003 (ip), vehicle: saline with Tween-80
# [2] = dose: 75.0 mg/kg/injection, schedule: Q04DX003 (ip), vehicle: suspension in saline
# [3] = dose: 150.0 mg/kg/injection, schedule: Q04DX003 (ip), vehicle: suspension in saline
# [4] = dose: 300.0 mg/kg/injection, schedule: Q04DX003 (ip), vehicle: suspension in saline
# [5] = dose: 600.0 mg/kg/injection, schedule: Q04DX003 (ip), vehicle: suspension in saline
# [6] = dose: 50.0 mg/kg/injection, schedule: Q04DX003 (ip), vehicle: Klucel (hydroxypropylcellulose) (HPC)
# [7] = dose: 200.0 mg/kg/injection, schedule: Q04DX003 (ip), vehicle: Klucel (hydroxypropylcellulose) (HPC)
# [8] = dose: 50.0 mg/kg/injection, schedule: Q04DX003 (ip), vehicle: saline with Tween-80
# [9] = dose: 100.0 mg/kg/injection, schedule: Q04DX003 (ip), vehicle: saline with Tween-80
# [10] = dose: 25.0 mg/kg/injection, schedule: Q04DX003 (ip), vehicle: Klucel (hydroxypropylcellulose) (HPC)
# [11] = dose: 100.0 mg/kg/injection, schedule: Q04DX003 (ip), vehicle: Klucel (hydroxypropylcellulose) (HPC)
smiles,measurement,setting,value
CN(C=O)C(C(=O)Nc1cccc2c(OC(=O)C(N(C)C=O)(N(C)C=O)N(C)C=O)c(N=Nc3ccc(S(=O)(=O)Nc4nccs4)cc3)cc(N=Nc3ccc(S(=O)(=O)Nc4nccs4)cc3)c12)(N(C)C=O)N(C)C=O (tested in a mixture with another compound),T/C,[1],101 % of control
same,T/C,"dose: 150.0 mg/kg/injection, schedule: Q04DX003 (ip), vehicle: saline with Tween-80",99 % of control
same,T/C,"dose: 300.0 mg/kg/injection, schedule: Q04DX003 (ip), vehicle: saline with Tween-80",89 % of control
same,T/C,"dose: 600.0 mg/kg/injection, schedule: Q04DX003 (ip), vehicle: saline with Tween-80",95 % of control
same,T/C,"dose: 1200.0 mg/kg/injection, schedule: Q04DX003 (ip), vehicle: saline with Tween-80",93 % of control
N[C@@H](Cc1c[nH]c2ccccc12)C(=O)Nc1nncs1,T/C,[2],107 % of control
same,T/C,[3],94 % of control
same,T/C,[4],94 % of control
same,T/C,[5],119 % of control
O=C([O][Bi]([c]1ccccc1)[c]1ccccc1)c1ccccc1,T/C,"dose: 12.5 mg/kg/injection, schedule: Q04DX003 (ip), vehicle: Klucel (hydroxypropylcellulose) (HPC)",98 % of control
same,T/C,[6],211 % of control
same,T/C,[7],103 % of control
CC1/C=C/C=C/CC/C=C/C=C/C=C/C=C/C(OC2OC(C)C(O)C(N)C2O)CC2OC(CC(O)C(O)CCC(O)CC(O)CC(O)CC(=O)OC(C)C(C)C1O)CC(O)C2C(=O)O (centres undefined),T/C,"dose: 25.0 mg/kg/injection, schedule: Q04DX003 (ip), vehicle: saline with Tween-80",101 % of control
same,T/C,[8],101 % of control
same,T/C,[9],111 % of control
CCCCNP1(NCCCC)=NP(NCCCC)(NCCCC)=NP(NCCCC)(NCCCC)=NP(NCCCC)(NCCCC)=N1,T/C,"dose: 32.4 mg/kg/injection, schedule: Q04DX003 (ip), vehicle: saline with Tween-80",116 % of control
same,T/C,"dose: 54.0 mg/kg/injection, schedule: Q04DX003 (ip), vehicle: saline with Tween-80",105 % of control and 98 % of control
same,T/C,[1],113 % of control
same,T/C,"dose: 90.0 mg/kg/injection, schedule: Q04DX003 (ip), vehicle: saline with Tween-80",105 % of control and 120 % of control
CC(=O)OCC1OC(n2ncc(=O)[nH]c2=O)C(OC(C)=O)C1OC(C)=O (centres undefined),T/C,[2],99 % of control
same,T/C,[3],105 % of control
same,T/C,[4],104 % of control
same,T/C,[5],99 % of control
same,T/C,"dose: 1200.0 mg/kg/injection, schedule: Q04DX003 (ip), vehicle: suspension in saline",95 % of control
Cc1nc2c(N)cc(Cl)cc2[nH]1,T/C,[8],114 % of control
same,T/C,[9],112 % of control
same,T/C,"dose: 200.0 mg/kg/injection, schedule: Q04DX003 (ip), vehicle: saline with Tween-80",99 % of control
ClC1(Cl)Cc2ccccc21,T/C,[8],109 % of control
same,T/C,[9],120 % of control
same,T/C,"dose: 400.0 mg/kg/injection, schedule: Q04DX003 (ip), vehicle: saline with Tween-80",120 % of control
Nc1nc2n[nH]nc2c(=O)[nH]1,T/C,"dose: 37.5 mg/kg/injection, schedule: Q04DX003 (ip), vehicle: suspension in saline",164 % of control
same,T/C,[2],177 % of control
same,T/C,[3],217 % of control
same,T/C,[4],251 % of control
COc1c2c(c(O)c3c4c(c(C)cc13)C1OC3(C(OC)OC5CC(C)(O)C(OC6CC(C)(O)C(O)C(C)O6)C(C)O5)OC1C(OC)(O4)C31CO1)C(=O)C(O)CC2OC1CC(C)(O)C(OC(C)=O)C(C)O1 (centres undefined),T/C,"dose: 12.5 micrograms/kg/injection, schedule: Q04DX003 (ip), vehicle: saline",261 % of control
same,T/C,"dose: 25.0 micrograms/kg/injection, schedule: Q04DX003 (ip), vehicle: saline",181 % of control
same,T/C,"dose: 50.0 micrograms/kg/injection, schedule: Q04DX003 (ip), vehicle: saline",107 % of control
N#Cc1c(N)[nH]c2ccc(Sc3ccccc3)cc12,T/C,"dose: 15.0 mg/kg/injection, schedule: Q04DX003 (ip), vehicle: saline with Tween-80",99 % of control
same,T/C,"dose: 30.0 mg/kg/injection, schedule: Q04DX003 (ip), vehicle: saline with Tween-80",89 % of control
same,T/C,"dose: 60.0 mg/kg/injection, schedule: Q04DX003 (ip), vehicle: saline with Tween-80",94 % of control
same,T/C,"dose: 120.0 mg/kg/injection, schedule: Q04DX003 (ip), vehicle: saline with Tween-80",104 % of control
same,T/C,"dose: 240.0 mg/kg/injection, schedule: Q04DX003 (ip), vehicle: saline with Tween-80",124 % of control
CO[C@H](/C(C)=C/C=C/C(C)=C/c1coc(C)n1)[C@H](C)[C@H]1C[C@@H](O)[C@@]2(C)O[C@H]2/C=C/[C@@H](C)[C@@H]2C[C@@H](CC(=O)O2)C[C@H]2O[C@@H]2C(=O)O1,T/C,"dose: 0.09 mg/kg/injection, schedule: Q01DX009 (ip), vehicle: other",176 % of control
same,T/C,"dose: 0.12 mg/kg/injection, schedule: Q04DX003 (ip), vehicle: other",121 % of control
same,T/C,"dose: 0.13 mg/kg/injection, schedule: Q01DX009 (ip), vehicle: other",180 % of control
same,T/C,"dose: 0.2 mg/kg/injection, schedule: Q01DX009 (ip), vehicle: other",175 % of control
same,T/C,"dose: 0.2 mg/kg/injection, schedule: Q04DX003 (ip), vehicle: other",108 % of control
same,T/C,"dose: 0.3 mg/kg/injection, schedule: Q01DX009 (ip), vehicle: other",152 % of control and 196 % of control
same,T/C,"dose: 0.44 mg/kg/injection, schedule: Q01DX009 (ip), vehicle: other",162 % of control
same,T/C,"dose: 0.55 mg/kg/injection, schedule: Q04DX003 (ip), vehicle: other",122 % of control
same,T/C,"dose: 0.66 mg/kg/injection, schedule: Q01DX009 (ip), vehicle: other",93 % of control
O=NNc1cccnc1,T/C,"dose: 6.25 mg/kg/injection, schedule: Q04DX003 (ip), vehicle: water",100 % of control and 101 % of control
same,T/C,"dose: 12.5 mg/kg/injection, schedule: Q04DX003 (ip), vehicle: water",109 % of control and 101 % of control
same,T/C,"dose: 25.0 mg/kg/injection, schedule: Q04DX003 (ip), vehicle: water",113 % of control and 98 % of control
same,T/C,"dose: 50.0 mg/kg/injection, schedule: Q04DX003 (ip), vehicle: water",114 % of control and 96 % of control
same,T/C,"dose: 100.0 mg/kg/injection, schedule: Q04DX003 (ip), vehicle: water",103 % of control and 117 % of control
O=CC(CO)CC(C=O)n1cnc2c(=O)[nH]cnc21 (centres undefined),T/C,"dose: 50.0 mg/kg/injection, schedule: Q04DX003 (ip), vehicle: saline",109 % of control
same,T/C,"dose: 100.0 mg/kg/injection, schedule: Q04DX003 (ip), vehicle: saline",102 % of control
same,T/C,"dose: 200.0 mg/kg/injection, schedule: Q04DX003 (ip), vehicle: saline",103 % of control
same,T/C,"dose: 400.0 mg/kg/injection, schedule: Q04DX003 (ip), vehicle: saline",113 % of control
same,T/C,"dose: 800.0 mg/kg/injection, schedule: Q04DX003 (ip), vehicle: saline",100 % of control
CC1=C(C(N)=O)C(c2ccccc2)NC(=S)N1 (centres undefined),T/C,[10],96 % of control
same,T/C,[6],98 % of control
same,T/C,[11],97 % of control
same,T/C,[7],95 % of control
same,T/C,"dose: 400.0 mg/kg/injection, schedule: Q04DX003 (ip), vehicle: Klucel (hydroxypropylcellulose) (HPC)",86 % of control
O=C1CC2(C(=O)N1CN1CCOCC1)c1ccccc1-c1ccccc12,T/C,"dose: 75.0 mg/kg/injection, schedule: Q04DX003 (ip), vehicle: Klucel (hydroxypropylcellulose) (HPC)",102 % of control
same,T/C,"dose: 150.0 mg/kg/injection, schedule: Q04DX003 (ip), vehicle: Klucel (hydroxypropylcellulose) (HPC)",98 % of control
same,T/C,"dose: 300.0 mg/kg/injection, schedule: Q04DX003 (ip), vehicle: Klucel (hydroxypropylcellulose) (HPC)",103 % of control
same,T/C,"dose: 600.0 mg/kg/injection, schedule: Q04DX003 (ip), vehicle: Klucel (hydroxypropylcellulose) (HPC)",120 % of control
CC(C)(C)NC(C1=CC(C)(C)c2ccccc2C1=O)c1ccccc1 (centres undefined),T/C,[10],107 % of control
same,T/C,[6],113 % of control
same,T/C,[11],110 % of control
same,T/C,[7],118 % of control
O=C1C2=C(Nc3cc([N+](=O)[O-])ccc3N2)OC1c1ccccn1 (centres undefined),T/C,[10],99 % of control
same,T/C,[6],99 % of control
same,T/C,[11],110 % of control
same,T/C,[7],110 % of control
COc1cc2c(c(OC)c1OC)-c1ccc(OC)c(=O)cc1[C@@H](NC(C)=O)CC2,T/C,"dose: 0.13 mg/kg/injection, schedule: Q04DX003 (ip), vehicle: saline",162 % of control
same,T/C,"dose: 0.25 mg/kg/injection, schedule: Q04DX003 (ip), vehicle: saline",150 % of control and 179 % of control and 180 % of control
same,T/C,"dose: 0.5 mg/kg/injection, schedule: Q04DX003 (ip), vehicle: saline",171 % of control and 197 % of control and 220 % of control
same,T/C,"dose: 1.0 mg/kg/injection, schedule: Q04DX003 (ip), vehicle: saline",229 % of control and 232 % of control and 280 % of control
same,T/C,"dose: 2.0 mg/kg/injection, schedule: Q04DX003 (ip), vehicle: saline",189 % of control and 222 % of control and 262 % of control
same,T/C,"dose: 4.0 mg/kg/injection, schedule: Q04DX003 (ip), vehicle: saline",268 % of control
